Laboratory results reported in article PMC12668310, “High‐Throughput Synthesis and Screening of a Cyanimide Library Identifies Selective Inhibitors of ISG15‐Specific Protease mUSP18” (Angewandte Chemie (International Ed. in English), 2025).

Columns and labels:
[1] = molecular target: T1, mUSP18 (Mus musculus, UniProt Q9WTV6); test: IC50 determination, fluorogenic ISG15CT-Rho-morpholine activity assay; assay type: biochemical, murine
T1 construct: (46-368); His-tag (N); made in house
T1 sequence (Q9WTV6 46-368): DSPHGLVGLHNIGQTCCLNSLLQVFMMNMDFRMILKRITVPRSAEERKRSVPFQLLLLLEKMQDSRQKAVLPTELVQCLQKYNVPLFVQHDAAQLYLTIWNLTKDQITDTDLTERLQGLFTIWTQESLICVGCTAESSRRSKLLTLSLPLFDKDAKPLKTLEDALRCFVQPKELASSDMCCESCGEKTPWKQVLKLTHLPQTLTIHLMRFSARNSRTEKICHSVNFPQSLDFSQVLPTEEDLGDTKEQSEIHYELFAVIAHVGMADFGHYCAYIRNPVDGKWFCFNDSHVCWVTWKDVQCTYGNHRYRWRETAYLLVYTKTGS

[2] = molecular target: T1, mUSP18; test: High-throughput screening, ISG15ct-RhoMP, single dose 1.25 µM; assay type: biochemical, murine; settings: crude in-plate synthesized compound, 1.25 µM assuming full conversion; read-out: %inhibition mUSP18
[3] = test system: 12 Ub(‐like) proteases; test: High-throughput screening, whole panel of twelve enzymes; assay type: biochemical; settings: crude mixture, 1.25 µM; enzymes other than mUSP18
Experimental: Since the in‐plate synthesis was conducted in 1536‐well Echo plates, the compounds could readily be transferred from these plates into 1536‐well assay plates using acoustic liquid dispensing (Figure 2a) and subjected to HTS. We screened the whole 7536 compound library against a panel of twelve enzymes, including three DUBs from the UCH family, two DUBs from the OTU family, five DUBs from the USP family, plus ISG15 protease USP18, and SUMO protease SENP1. Each compound was tested at a single dose of 1.25 µM, assuming full conversion (10 mM in DMSO of the formed products) during the in‐plate synthesis, using the fluorogenic assay described above. […] The compounds are sorted by the amine building blocks (BB1‐16), and within each BB, sorted by carboxylic acid (CA1‐471), thereby providing a comprehensive and systematic overview of the overall inhibition by each BB and CA combination. Some interesting patterns can be obtained from this map. […] Indeed, BB10 is the privileged scaffold for UCHL1 as it originates from UCHL1 inhibitor 5 (Figure 1). […]
(§1) The percentage inhibition was calculated for each well using the […]
(§2) Where FIx is the fluorescence intensity of each well, FIpos is the average fluorescence intensity of the positive (NEM) control wells, and FIneg is the average fluorescence intensity of the negative (DMSO) control wells.

[4] = molecular target: T2, UCHL3 (Homo sapiens, UniProt P15374); test: IC50 determination, fluorogenic Ub-Rho-morpholine activity assay; assay type: biochemical; settings: after 30 min incubation; purified compound
T2 construct: (1-230); made in house
T2 sequence (P15374 1-230): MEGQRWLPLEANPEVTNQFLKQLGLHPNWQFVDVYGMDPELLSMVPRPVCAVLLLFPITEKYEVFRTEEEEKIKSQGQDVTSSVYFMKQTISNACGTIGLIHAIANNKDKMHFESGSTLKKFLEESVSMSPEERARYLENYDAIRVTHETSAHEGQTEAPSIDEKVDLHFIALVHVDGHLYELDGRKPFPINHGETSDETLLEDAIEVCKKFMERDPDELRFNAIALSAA

[5] = molecular target: T3, USP30 (Homo sapiens, UniProt Q70CQ3); test: biochemical
T3 sequence (Q70CQ3 57-517): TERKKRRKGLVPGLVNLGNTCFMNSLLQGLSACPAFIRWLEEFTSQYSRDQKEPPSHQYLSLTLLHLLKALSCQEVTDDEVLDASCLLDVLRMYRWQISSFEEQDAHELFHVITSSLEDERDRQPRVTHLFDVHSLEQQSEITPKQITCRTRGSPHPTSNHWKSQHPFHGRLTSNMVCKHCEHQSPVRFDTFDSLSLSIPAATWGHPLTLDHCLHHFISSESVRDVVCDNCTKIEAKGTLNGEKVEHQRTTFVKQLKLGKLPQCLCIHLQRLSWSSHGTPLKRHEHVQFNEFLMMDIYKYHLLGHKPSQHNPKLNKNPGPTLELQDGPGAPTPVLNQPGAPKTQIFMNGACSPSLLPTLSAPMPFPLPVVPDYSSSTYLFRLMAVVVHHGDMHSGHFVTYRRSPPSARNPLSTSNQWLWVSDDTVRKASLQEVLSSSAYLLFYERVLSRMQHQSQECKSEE
Experimental: This panel included five proteases from the USP family, two from the UCH family, and one OTU. The IC50 values were determined in a well‐established biochemical activity assay using the fluorogenic substrate Ub‐Rho‐morpholine.^[ [33] ^] For USP18, which is unreactive to Ub but specific for ISG15, we used the ISG15CT‐Rho‐morpholine (consisting of the C‐terminal domain of ISG15) substrate to monitor its activity (see Supporting Information for preparation of this substrate).
(§3) Enzymes were pre-incubated with a concentration series of the compounds for 30 minutes at
(§4) room temperature, before addition of the substrate and direct read-out by fluorescence
(§5) intensity. Data is presented as mean ± SD, n=3.
room temperature, followed by the addition of substrate and direct read-out by fluorescence
IC50 and kinact/KI determination
(§6) The assays were performed at room temperature in “nonbinding surface flat bottom low flange”
(§7) TrisꞏHCl, 100 mM NaCl, pH 7.6, 2.0 mM cysteine, 1 mg/mL 3-[(3-cholamidopropyl)-
(§8) dimethylammonio]propanesulfonic acid (CHAPS), and 0.5 mg/mL γ-globulins from bovine
(§9) blood (BGG). […] The compounds were dissolved in 10
(§10) mM DMSO stocks, and appropriate volumes were transferred to the empty plates using a
(§11) Labcyte Echo550 acoustic dispenser. A DMSO back-fill was performed to obtain equal volumes of DMSO (400 μL) in each well. N-ethylmaleimide (NEM, 10 mM) was used a positive
(§12) steps were performed on a Biotek MultiflowFX liquid dispenser. A 10 μL portion of buffer was added and the plate was vigorously shaken for 20s. Next, 5 μL of recombinant enzyme (4x final concentration) was added followed by incubation for 1h. A 5 μL portion of the substrate
(§13) (Ub-RhoMP[2] for all DUBs, ISG15ct-RhoMP (vide supra) for USP18 and Z-FR-AMC [Bachem,
(§14) RhoMP, 10 µM for Z-FR-AMC), and the increase in fluorescence over time was recorded using
(§15) excitation 360 nm, emission 450 nm for AMC). The initial enzyme velocities were calculated
(§16) from the slopes, normalized to the positive and negative controls, and plotted against the
(§17) inhibitor concentrations using the built-in equation “[inhibitor] vs response − variable slope
(§18) (four parameters), least-squares fit” with constraints “Bottom = 0” and “Top = 100” in GraphPad
(§19) Prism 7 software to obtain the IC50 values.
(§20) All data fitting and calculations were done using GraphPad Prism 7 software.

[6] = molecular target: T4, USP32 (Homo sapiens, UniProt Q8NFA0); test: IC50 determination, fluorogenic Ub-Rho-morpholine activity assay; assay type: biochemical; settings: after 30 min incubation; purified compound
T4 construct: (1-1604); His-tag (N); made in house

[7] = molecular target: T5, OTUB2 (Homo sapiens, UniProt Q96DC9); test: biochemical
T5 sequence (Q96DC9 1-234): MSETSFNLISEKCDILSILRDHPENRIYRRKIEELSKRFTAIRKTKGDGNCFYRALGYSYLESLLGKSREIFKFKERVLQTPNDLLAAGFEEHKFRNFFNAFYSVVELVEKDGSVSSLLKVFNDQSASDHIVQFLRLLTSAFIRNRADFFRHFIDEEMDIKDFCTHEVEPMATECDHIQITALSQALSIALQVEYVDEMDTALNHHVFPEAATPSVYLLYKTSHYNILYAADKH
Experimental: (§21) This panel included five proteases from the USP family, two from the UCH family, and one OTU. The IC50 values were determined in a well‐established biochemical activity assay using the fluorogenic substrate Ub‐Rho‐morpholine.^[ [33] ^]
as §3, §4, §5
(§22) USP16 Full length N-terminal His-tag Q9Y5T5 In-house, [Mons, 2 nM
IC50 and kinact/KI determination
as §6, §7, §8, §9, §10, §11
steps were performed on a Biotek MultiflowFX liquid dispenser. […]
as §14
excitation 360 nm, emission 450 nm for AMC). The initial enzyme velocities were calculated […]

[8] = molecular target: T6, USP7 (Homo sapiens, UniProt Q93009); test: IC50 determination, fluorogenic Ub-Rho-morpholine activity assay; assay type: biochemical; settings: after 30 min incubation; purified compound
T6 construct: (1-1102); GST (cleaved yes); made in house

[9] = molecular target: T7, UCHL1 (Homo sapiens, UniProt P09936); test: as above; assay type: biochemical; settings: after 30 min incubation; purified compound
T7 construct: (1-223); made in house
T7 sequence (P09936 1-223): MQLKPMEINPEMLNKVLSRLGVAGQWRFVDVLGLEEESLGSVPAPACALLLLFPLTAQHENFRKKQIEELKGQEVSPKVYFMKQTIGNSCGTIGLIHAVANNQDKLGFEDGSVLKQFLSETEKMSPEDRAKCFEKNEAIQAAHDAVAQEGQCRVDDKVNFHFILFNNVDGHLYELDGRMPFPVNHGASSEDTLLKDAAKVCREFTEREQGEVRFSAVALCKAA

[10] = molecular target: USP16 (Homo sapiens, UniProt Q9Y5T5); test: biochemical
Experimental: as §21, §3, §4, §5, §22
IC50 and kinact/KI determination
as §6, §7, §8, §9, §10, §11, §12, §13, §14, §15, §16, §17, §18, §19, §20

[11] = molecular target: T3, USP30; test: High-throughput screening, Ub-RhoMP, single dose 1.25 µM; assay type: biochemical; set-up: USP30 CD (57-517); purchased Ubiquigent 64-0057-050; settings: crude in-plate synthesized compound, 1.25 µM assuming full conversion
Experimental: Since the in‐plate synthesis was conducted in 1536‐well Echo plates, the compounds could readily be transferred from these plates into 1536‐well assay plates using acoustic liquid dispensing (Figure 2a) and subjected to HTS. We screened the whole 7536 compound library against a panel of twelve enzymes, including three DUBs from the UCH family, two DUBs from the OTU family, five DUBs from the USP family, plus ISG15 protease USP18, and SUMO protease SENP1. Each compound was tested at a single dose of 1.25 µM, assuming full conversion (10 mM in DMSO of the formed products) during the in‐plate synthesis, using the fluorogenic assay described above. […] The compounds are sorted by the amine building blocks (BB1‐16), and within each BB, sorted by carboxylic acid (CA1‐471), thereby providing a comprehensive and systematic overview of the overall inhibition by each BB and CA combination. Some interesting patterns can be obtained from this map. […] Indeed, BB10 is the privileged scaffold for UCHL1 as it originates from UCHL1 inhibitor 5 (Figure 1). […] On the other hand, OTUD1 and USP32 show a much higher hit rate, and this is even more pronounced for USP30 and ISG15 protease mUSP18, each showing many active compounds distributed over several BB's.
Purified recombinant enzymes used in this study
High-throughput screening
The screens were performed at room temperature in “flat bottom, non-treated, black […]
µM. The compounds (10 nL each) were transferred from the 1 mM daughter plates to the […]
Four wells containing DMSO
(10 nL) and four wells containing NEM (10 mM final concentration) were used in each plate […]
solution (1.33x final concentration) was added to each well, followed by incubation for 30 min.
Next, 2 µL of a substrate solution (4x final concentration) was added to each well (Ub-RhoMP[2]
After 1h or 2h incubation the
as §1, §2

T4 sequence (Q8NFA0 whole entry): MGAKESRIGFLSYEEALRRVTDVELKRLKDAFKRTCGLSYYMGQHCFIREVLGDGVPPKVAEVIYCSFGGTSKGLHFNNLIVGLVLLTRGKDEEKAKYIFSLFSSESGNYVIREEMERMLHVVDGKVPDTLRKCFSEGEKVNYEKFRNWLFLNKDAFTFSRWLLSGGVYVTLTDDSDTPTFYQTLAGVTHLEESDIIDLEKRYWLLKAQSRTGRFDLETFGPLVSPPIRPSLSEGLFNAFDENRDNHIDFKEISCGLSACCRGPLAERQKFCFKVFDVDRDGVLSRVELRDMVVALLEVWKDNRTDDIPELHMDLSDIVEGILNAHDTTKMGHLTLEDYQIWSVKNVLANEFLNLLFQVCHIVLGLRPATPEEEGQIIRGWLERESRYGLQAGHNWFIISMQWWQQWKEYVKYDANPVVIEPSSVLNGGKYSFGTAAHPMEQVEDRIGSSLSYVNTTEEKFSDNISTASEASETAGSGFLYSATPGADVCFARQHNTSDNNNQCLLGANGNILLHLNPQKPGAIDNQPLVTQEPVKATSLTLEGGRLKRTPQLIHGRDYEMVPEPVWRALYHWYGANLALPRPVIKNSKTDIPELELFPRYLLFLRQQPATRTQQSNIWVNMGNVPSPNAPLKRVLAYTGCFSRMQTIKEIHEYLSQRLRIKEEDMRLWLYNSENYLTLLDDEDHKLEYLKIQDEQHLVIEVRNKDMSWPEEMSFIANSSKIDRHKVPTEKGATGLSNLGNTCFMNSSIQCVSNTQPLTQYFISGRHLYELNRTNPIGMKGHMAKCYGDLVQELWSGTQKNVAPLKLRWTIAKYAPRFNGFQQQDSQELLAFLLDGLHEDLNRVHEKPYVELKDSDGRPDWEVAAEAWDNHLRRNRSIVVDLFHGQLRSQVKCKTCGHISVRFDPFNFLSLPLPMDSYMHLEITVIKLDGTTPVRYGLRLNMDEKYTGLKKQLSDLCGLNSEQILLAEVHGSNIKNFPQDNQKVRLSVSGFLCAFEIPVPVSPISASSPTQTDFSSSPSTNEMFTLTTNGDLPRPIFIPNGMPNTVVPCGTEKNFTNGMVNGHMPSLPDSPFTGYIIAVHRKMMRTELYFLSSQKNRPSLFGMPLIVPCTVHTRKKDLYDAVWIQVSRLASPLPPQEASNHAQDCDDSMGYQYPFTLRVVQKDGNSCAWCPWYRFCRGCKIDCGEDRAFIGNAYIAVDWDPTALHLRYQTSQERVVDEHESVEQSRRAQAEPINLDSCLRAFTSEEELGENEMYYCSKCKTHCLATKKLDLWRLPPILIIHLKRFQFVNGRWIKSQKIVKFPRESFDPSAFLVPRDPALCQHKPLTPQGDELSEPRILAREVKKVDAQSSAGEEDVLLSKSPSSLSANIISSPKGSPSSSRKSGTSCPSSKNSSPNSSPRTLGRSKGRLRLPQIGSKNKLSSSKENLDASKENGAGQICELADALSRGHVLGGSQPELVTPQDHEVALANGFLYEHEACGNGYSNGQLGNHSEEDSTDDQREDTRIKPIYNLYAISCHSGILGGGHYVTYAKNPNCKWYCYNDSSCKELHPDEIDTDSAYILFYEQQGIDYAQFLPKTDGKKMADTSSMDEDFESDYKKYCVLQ
T6 sequence (Q93009 whole entry): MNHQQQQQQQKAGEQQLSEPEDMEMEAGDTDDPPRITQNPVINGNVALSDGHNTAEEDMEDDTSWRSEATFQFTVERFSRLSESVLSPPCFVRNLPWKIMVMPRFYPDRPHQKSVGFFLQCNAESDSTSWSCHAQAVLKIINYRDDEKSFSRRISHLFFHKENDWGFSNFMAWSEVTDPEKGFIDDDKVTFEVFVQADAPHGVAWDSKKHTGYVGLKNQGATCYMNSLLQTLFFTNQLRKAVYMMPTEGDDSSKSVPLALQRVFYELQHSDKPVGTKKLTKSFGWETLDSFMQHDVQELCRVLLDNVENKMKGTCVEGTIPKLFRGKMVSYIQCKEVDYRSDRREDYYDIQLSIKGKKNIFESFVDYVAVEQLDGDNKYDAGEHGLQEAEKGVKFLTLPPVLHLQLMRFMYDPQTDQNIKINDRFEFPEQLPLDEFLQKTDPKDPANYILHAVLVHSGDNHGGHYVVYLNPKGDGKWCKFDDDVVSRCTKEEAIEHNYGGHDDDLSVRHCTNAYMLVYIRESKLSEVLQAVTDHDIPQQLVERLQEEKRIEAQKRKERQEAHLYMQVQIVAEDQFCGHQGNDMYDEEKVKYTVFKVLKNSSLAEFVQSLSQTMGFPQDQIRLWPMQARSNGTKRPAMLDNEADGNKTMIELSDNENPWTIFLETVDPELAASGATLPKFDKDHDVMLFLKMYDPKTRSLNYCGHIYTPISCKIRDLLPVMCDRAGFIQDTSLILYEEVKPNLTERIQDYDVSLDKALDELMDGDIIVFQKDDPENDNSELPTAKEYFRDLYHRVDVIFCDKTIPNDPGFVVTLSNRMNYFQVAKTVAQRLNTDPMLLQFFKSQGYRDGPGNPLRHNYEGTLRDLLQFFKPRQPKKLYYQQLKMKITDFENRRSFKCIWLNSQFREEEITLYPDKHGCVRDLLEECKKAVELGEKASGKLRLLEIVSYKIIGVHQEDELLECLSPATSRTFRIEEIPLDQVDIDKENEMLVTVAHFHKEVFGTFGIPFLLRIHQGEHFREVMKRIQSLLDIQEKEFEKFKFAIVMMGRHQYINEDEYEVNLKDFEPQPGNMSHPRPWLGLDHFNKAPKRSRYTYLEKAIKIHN
Chain of USP16 (Q9Y5T5 22-823): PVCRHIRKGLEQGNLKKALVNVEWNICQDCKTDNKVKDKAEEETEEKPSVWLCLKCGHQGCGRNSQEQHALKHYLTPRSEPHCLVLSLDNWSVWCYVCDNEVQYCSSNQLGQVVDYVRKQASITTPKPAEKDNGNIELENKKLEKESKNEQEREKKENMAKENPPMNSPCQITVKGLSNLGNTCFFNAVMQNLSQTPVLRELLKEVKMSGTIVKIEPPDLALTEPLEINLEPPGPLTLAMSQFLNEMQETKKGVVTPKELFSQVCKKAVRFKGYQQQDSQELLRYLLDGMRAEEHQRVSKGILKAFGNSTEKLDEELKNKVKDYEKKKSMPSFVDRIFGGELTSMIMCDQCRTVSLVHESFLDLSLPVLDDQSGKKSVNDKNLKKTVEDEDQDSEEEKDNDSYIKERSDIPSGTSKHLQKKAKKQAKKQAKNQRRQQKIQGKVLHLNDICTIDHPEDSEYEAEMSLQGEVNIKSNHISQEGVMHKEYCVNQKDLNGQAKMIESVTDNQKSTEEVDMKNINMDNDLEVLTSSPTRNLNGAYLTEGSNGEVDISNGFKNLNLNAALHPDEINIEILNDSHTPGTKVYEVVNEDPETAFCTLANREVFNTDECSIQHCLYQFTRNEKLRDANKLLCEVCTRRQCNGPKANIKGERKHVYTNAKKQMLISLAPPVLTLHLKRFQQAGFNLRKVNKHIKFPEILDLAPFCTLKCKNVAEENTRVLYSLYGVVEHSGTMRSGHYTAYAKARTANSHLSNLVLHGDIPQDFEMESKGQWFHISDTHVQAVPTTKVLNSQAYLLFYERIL

SMILES | IC50 ([1]; pure (re-synthesized) compound, mean ± SD n = 3) | inhibition at 1.25 µM [2] | inhibition of all other enzymes tested [3] | IC50 [4] | IC50 [5] | IC50 [6] | IC50 ([1]; after 30 min incubation, purified compound, ISG15CT-Rho-morpholine substrate) | IC50 [7] | IC50 [8] | IC50 [9] | IC50 [10] | %inhibition USP30 [11]
N#CN1C[C@H]2C[C@H](NC(=O)CCC3CCCCC3)C[C@H]2C1 [BB07CA48] | 0.24 ± 0.0099 µM | 75% | negligible inhibition |  |  |  |  |  |  |  |  | 
N#CN1CC[C@@H](NC(=O)c2cc(-c3cccc(Cl)c3)no2)C1 [Compound 1] |  | ~90% |  | 229 µM | 0.043 µM | 0.53 µM | 0.079 µM | > 200 µM | 42 µM | 54 µM | 5.1 µM | ~90%
